The record followed here is ChEMBL document CHEMBL1131947, “Syntheses and biological activities of bis(3-indolyl)thiazoles, analogues of marine bis(indole)alkaloid nortopsentins” (1999).

Format in all cases: functional
In one test the test system is HCT-15. As to the kind of experiment: In vitro growth inhibitory activity against human HCT-15 cancer cell line.
For another test, the system named is K562. The experiment in a line: In vitro growth inhibitory activity against human K-562 cancer cell line.
A further test deals with MOLT-4. As to the kind of experiment: In vitro growth inhibitory activity against human MOLT-4 cancer cell line.
The subject of a further test is MCF7. As to the kind of experiment: In vitro growth inhibitory activity against human MCF-7 cancer cell line.
The next test relates to MDA-N. As to the kind of experiment: In vitro growth inhibitory activity against human MDA-N cancer MDA-N cell line.
The subject of a further test is NCI-H23. The experiment in a line: In vitro growth inhibitory activity against human NCI-H23 cancer cell line.
Another test deals with SR. The experiment in a line: In vitro growth inhibitory activity against human SR cancer cell line.
In the next test the test system is SF-295. As to the kind of experiment: In vitro growth inhibitory activity against human SF-295 cancer cell line.

The structures appear in SMILES notation.

As to `Brc1ccc2c(-c3nc(-c4c[nH]c5ccccc45)cs3)c[nH]c2c1`, the 50% growth inhibitory concentration (GI50) with HCT-15 stood at 17.8 µM; in the test with K562, 5.61 µM; in the test with MOLT-4, 31.2 µM; in the test with MCF7, 27.2 µM; in the test with MDA-N, 31.5 µM; in the test with NCI-H23, 25.8 µM. Further, the values for the GI50 in the test on SR and with SF-295 were 12.2 µM and 9.23 µM, respectively.
For the compound `c1ccc2c(-c3csc(-c4c[nH]c5ccccc45)n3)c[nH]c2c1`, the GI50 in the test with HCT-15 is above 100 µM; with K562, 3.27 µM; in the test with MOLT-4 it was 5.31 µM; in the test with MCF7 it was above 100 µM; in the test with MDA-N, 83 µM; with NCI-H23 it was above 100 µM. Moreover, the results for the GI50 in the test on SR and with SF-295 were 1.77 µM and 33.6 µM, respectively.
In the case of `Brc1ccc2c(-c3csc(-c4c[nH]c5cc(Br)ccc45)n3)c[nH]c2c1`, the GI50 was 8.5 µM in the test with HCT-15; 4.69 µM with K562; 5.8 µM in the test on MOLT-4; 6.46 µM in the test on MCF7; 2.94 µM in the test on MDA-N; 14.1 µM in the test with NCI-H23. The figures for the GI50 in the test with SR and in the test on SF-295 were 3.4 µM and 4.81 µM, respectively.
Regarding `Brc1ccc2c(-c3csc(-c4c[nH]c5ccccc45)n3)c[nH]c2c1`, the 50% growth inhibitory concentration (GI50) in the test with HCT-15 stood at 15.2 µM; with K562 it was 18.8 µM; in the test on MOLT-4, 19.9 µM; in the test on MCF7, 16.7 µM; in the test with MDA-N, 19.2 µM; in the test on NCI-H23, 14.5 µM. The values for the concentration for 50% growth inhibition (GI50) in the test with SR and in the test on SF-295 were 6.36 µM and 14.6 µM, respectively.

A word on the GI50: it is the concentration that inhibits growth by half.
